Patent publication US20090182011A1, “Chimeric Nitrate Esters and Use of the Same in a Treatment for Depression” (UNIVERSITY OF ILLINOIS CHICAGO, priority 2008, published 2009)

How the values were obtained:
[1] = NO-fluoxetine bioactivation in phosphate buffer; type: physicochemical; settings: 50 mM phosphate buffer solutions pH 7.0, 7.4 and 8.0
Description: In Phosphate buffer saline A stock solution of NO-fluoxetine was prepared by dissolving 1 mg of the compound in 100 μL MeOH (21 mM). An aliquot (10 μL) of the stock solution was added to 990 μL of 50 mM phosphate buffer (pH 7.4) at 22° C., and the formation of fluoxetine was monitored by reverse phase HPLC using 4.6 mm×150 mm C18 column at a flow rate of 1.0 mL/min. The mobile phase contained 60% acetonitrile content, which was increased to 90% over 5 min. After the phase was held 90% for 5 min, the acetonitrile was reduced to 60% in 5 min. Formation of fluoxetine in buffers was positively identified by comparing retention time and the LC-MS (electrospary ionization) protonated [M+H]+ molecular ion (m/z 310) of the authentic sample. Fluoxetine formation was monitored every 15 min and percentage of fluoxetine formation was obtained with respect to time. Kinetic experiments were performed in 50 mM phosphate buffer solutions (pH 7.0, pH 7.4, and pH 8.0).
Formation of fluoxetine in buffer was positively identified by comparison to the retention time and the LC-MS (electrospary ionization) protonated [M+H]+ molecular ion (m/z 310) of an authentic fluoxetine sample.
Kinetic studies for the degradation of NO-fluoxetine were performed by monitoring the production of fluoxetine every 15 min in different pH buffer solutions (See FIG. 1).

[2] = NO-fluoxetine bioactivation in rat liver microsomes; type: in vitro ADME; settings: 0.25 mM substrate, NADPH, 30 min, 37° C.
Description: In rat liver microsomes A solution containing substrate (0.25 mM), rat liver microsomes (3 nmol of P450/0.5 mL), and NADPH (2 mM) in 50 mM phosphate buffer (pH 7.4, 0.5 mL total volume) was incubated for 30 min at 37° C. The reaction was quenched by addition of acetonitrile and centrifugation for 10 min. The solution was filtered and injected to HPLC.

[3] = NO-fluoxetine bioactivation in rat plasma; type: in vitro ADME; settings: 0.25 mM substrate, 30 min, 37° C.
Description: In plasma A solution containing substrate (0.25 mM) and rat plasma (0.1 mL) was incubated for 30 min at 37° C. The reaction was quenched by addition of acetonitrile and centrifugation for 10 min. The solution was filtered and injected to HPLC.

[4] = NOx detection (NO analyzer, Griess assay); settings: incubated with GSH
Description: NOx detection A degassed solution containing NO-fluoxetine (0.5 mM), and cysteine (5 mM) or GSH (5 mM) in 50 mM phosphate buffer (pH 7.4, 1 mL total volume) was incubated for 30 min at 37° C. After 30 min, nitric oxide was detected using an NO analyzer, and nitrite and nitrate was detected using Griess assay.

male Sprague Dawley rats = assay: Modified forced swimming test; type: in vivo, rat; settings: 26.5 mg/kg i.p. 23.5, 5 and 1 hour before the test
Description: Modified forced swimming test This test was performed using male Sprague Dawley rats weighing 200-250 g. Rats were trained to swim in the water tank for 15 minutes 24 hour before the test. NO-Fluoxetine was administered by i.p. injections 23.5, 5, and 1 hour before the test at a dose of 26.5 mg/kg, which is equimolar to 20 mg/kg fluoxetine. NO-fluoxetine was freshly prepared in an emulsion formed of 5% Tween 80. The test was performed by putting the rats in a water tank consisting of an acrylic cylinder (22 cm diameter, 30 cm water depth, 25° C. water temperature) for 5 minutes. The 5 minute test was divided into 60 blocks of 5 seconds each. The major behavior in each 5 sec block was assigned for the whole block, including climbing, swimming, and immobile. The blocks representing different behaviors were counted.
In vivo NO-fluoxetine (26.5 mg/kg equimolar to 20 mg/kg fluoxetine) given by i.p. injections 23.5, 5, and 1 hour before the test was active in the modified forced swimming test, showing an increase in the swimming behaviour and a decrease in the immobility behaviour. Sub-acute injection of NO-fluoxetine provides sufficient time for the bioactivation of NO-fluoxetine and the subsequent release of fluoxetine.
Values presented as mean±SEM, n=6 per group. The data were statistically evaluated by ANOVA, followed by Turkey post-hoc test.

male C57BL/6 mice = assay: Step-through passive avoidance (STPA) task, scopolamine induced memory impairment; settings: for effect on 48 h retention (scopolamine induced long term memory impairment): 4.5 umole/kg i.p. 20 minutes before training (NO-fluoxetine 2.05 mg/kg, fluoxetine 1.54 mg/kg), scopolamine 1 mg/kg
Description: Step-through passive avoidance (STPA) task This test was performed on male C57BL/6 mice (from Charles River's Laboratories), 8-10 weeks of age and weighing 22-27 g. The mice were kept under standardized laboratory conditions (temperature 21±1° C., humidity 50-60%) with free access to food and tap water in a room with a natural light-dark cycle.
Avoidance experiment was divided into 3 phases: habituation, training, and retention. The apparatus used consisted of a box divided into 2 compartments, an illuminated compartment adjacent to a dark compartment, the floor consisted of an electric grid controlled by a switch that can deliver an electric shock only to the dark compartment. A doorway was located at floor level in the center of the connecting wall; the door was closed once the mouse enters the dark compartment. The habituation phase was performed by individually putting the mice in the light compartment; the door was closed once the mouse enters the dark compartment (without an electric shock), left there for 15 seconds before being returned to its cage. The time (latency) to enter the dark box was recorded for each mouse; only mice scoring less than 30 seconds for three consecutive times were allowed to pass for the training phase. Training phase was performed 2 hours after the habituation phase by individually placing the mice again in the illuminated compartment but an electric shock (0.6 mA for 2 s) was delivered immediately after the mouse entered the dark compartment accompanied by the door closure. Trial was repeated for a maximum of 5 trials or until the mouse remained in the light compartment for 300 seconds in one of the trials. During the training phase, the number of trials and the time (latency) to enter the dark compartment was scored. Mice that entered the dark compartment in the fifth trial in less than 300 seconds were eliminated from the experiment. Forty-eight hours after the training trial, a retention test was conducted in which the same animals were put into the illuminated box and again the latency to enter the dark box was recorded. The retention trial ended when the mouse entered the dark box or 300 s had elapsed, whichever occurred first. Scopolamine (1 mg/kg) dissolved in physiological saline water was administered by i.p. injection 30 minutes before the training phase and drugs dissolved in 25% DMSO were administered by i.p. injection 20 minutes before the training.
The data were statistically evaluated by one way ANOVA, followed by Tukey post-hoc test.

| Compound | conversion in buffer [1] | product of reaction with rat liver microsomes [2] | product of reaction with plasma [3] | nitric oxide release [4] | activity in the modified forced swimming test (male Sprague Dawley rats) | immobility behaviour (male Sprague Dawley rats) | swimming behaviour (male Sprague Dawley rats) | effect on 48 h retention (scopolamine induced long term memory impairment) (male C57BL/6 mice) | animals that failed to learn the STPA task during the training phase (male C57BL/6 mice; 4.5 umole/kg i.p. 20 minutes before training) |
| --- | --- | --- | --- | --- | --- | --- | --- | --- | --- |
| CN(CCC(Oc1ccc(C(F)(F)F)cc1)c1ccccc1)C(=O)SCCO[N+](=O)[O-] (stereo not shown) [NO-fluoxetine] | converted to fluoxetine | generated fluoxetine as the major product | generated fluoxetine as the major product | released nitric oxide | active | decrease | increase | reversed the scopolamine induced long term memory impairment |  |
| CNCCC(Oc1ccc(C(F)(F)F)cc1)c1ccccc1 (stereo not shown) [fluoxetine] |  |  |  |  |  |  |  | did not have an effect | 5 of 12 and zero |
